Data taken from US12128099B2 (priority 2018, dated 2024).
Where “and” joins values, the source holds several entries; their conditions need not be identical. Equal entries are not always repeated. Where two headings read alike, the source gives them in different places.

Tests used:
[1] = system: OC patient ascites-associated CD14+ monocytes
[2] = system: THP-1 SAMD9 KD cells; type: cell-based, human; conditions: FIGS. 15A-15D, 16C
[3] = system: OvCa-26; test: cells; type: cell-based, human; conditions: read-out: calculated IC50
[4] = system: OvCa-2a; test: cells; type: cell-based, human; conditions: read-out: calculated IC50
[5] = system: SKOV3; test: cells; type: cell-based, human
[6] = system: ID8 disseminated tumor; design: species or system mice; conditions: mouse, in vivo
[7] = system: primary OC cells (OvCa-2a and OvCa-26); type: cell-based, human
[8] = system: murine OC ID8 cells; type: cell-based
[9] = system: MYXV

For O=[N+]([O-])c1ccc2c(c1)S(=O)(=O)C=C2 [Stattic], the IL-8 level [1] was “unchanged levels of IL-8”, the “cytokine secretion (IL-10, IL-6)” value [1] was “suppressive effect in cytokine secretion” and the toxicity [1] was “did not cause noticeable toxicity”.
For Nc1nc2c(ncn2[C@@H]2O[C@@H]3COP(=O)(O)O[C@H]4[C@@H](O)[C@H](n5cnc6c(N)ncnc65)O[C@@H]4COP(=O)(O)O[C@@H]2[C@@H]3O)c(=O)[nH]1 [2′3′-cGAMP], the “IFNβ / ISG mRNA in SAMD9 KD cells versus control cells” value [2] was “comparably to control cells”.
Nc1ccn([C@@H]2O[C@H](CO)[C@@H](O)C2(F)F)c(=O)n1 [gemcitabine] gave an IC50 ([3]; Homo sapiens) of 14.6 µM, an IC50 ([4]; Homo sapiens) of 960 µM and an IC50 ([5]; Homo sapiens, SK-OV-3) of 9.32 µM. The median survival time [6] was 78 days, the “therapeutic benefit, single-agent treatment given late” value [6] was “did not lead to significant therapeutic benefit” and the “growth inhibition, drug treatment alone” value [7] was “did not observe significant growth inhibition”.
N.N.[Cl][Pt][Cl] [cisplatin] gave an IC50 [3] of 11.4 µM, an IC50 [4] of 3.6 µM and an IC50 ([5]; read-out: IC50) of 8.4 µM. For the same compound, the IC50 [8] was 2 µM, the Median survival [6] was 113 days and 127 days and the median survival time [6] was 90 days. For the same compound, the survival [6] was 40%, the “growth inhibition, drug treatment alone” value [7] was “did not observe significant growth inhibition” and the “MYXV DNA replication” value [9] was “inhibits DNA replication of MYXV”.
